From EPA's ToxValDB 9.5 (doi:10.2903/j.efsa.2007.105r) come the findings set out here.

In brackets after ≈: the same amount, converted by molar mass. Some results are limits rather than exact numbers.

The test system of one series is Daphnia magna. To be noted: chronic/long-term; duration: 21 days; reproduction.
Another series relates to Apis mellifera. To be noted: acute; duration: 48 hours; dermal; mortality.
The next series relates to Bibionidae. To be noted: chronic/long-term; duration: 28 days.
The test system of the next series is Anas platyrhynchos. To be noted: reproductive.
The test system of the next series is Colinus virginianus. To be noted: acute, mortality.
The test system of another series is Aphidius rhopalosiphi. The series can be described thus: LR50; higher = less toxic. To be noted: acute; duration: 48 hours; mortality.

In the case of `Cc1cc(C)c(C2=C(OC(=O)CC(C)(C)C)C3(CCCC3)OC2=O)c(C)c1` [Spiromesifen], the LC50 in the series with Oncorhynchus mykiss (acute, duration: 96 hours, mortality) is 0.016 µg/mL (≈ 0.0432 µM); in the series on Tagia sp. (acute, duration: 14 days, mortality) it was above 1000 mg/kg; in the series with Anas platyrhynchos (mortality), above 5000 mg/kg; in the series on Colinus virginianus, above 5000 mg/kg. The NOEC amounted to 0.00473 mg/L in the series with Oncorhynchus mykiss (chronic/long-term, duration: 97 days, time to swim up); 0.00025 mg/L in the series on Daphnia magna; 4.32 mg/kg with Tagia sp. (chronic/long-term, duration: 56 days, reproduction); 0.032 mg/L in the series with Bibionidae; 30 mg/kg-day with Rattus norvegicus (chronic); 229 mg/kg with Anas platyrhynchos. The LD50 was above 200 µg/piece in the series with Apis mellifera; above 2500 mg/kg with Rattus norvegicus (acute, oral, mortality); above 1160 mg/kg in the series on Colinus virginianus; above 2000 mg/kg in the series with Colinus virginianus (oral, diet). Further, the NOAEL (as a rule, the highest tested level that showed no adverse finding) with Mus musculus (chronic, duration: 18 months) stood at 3 mg/kg-day; in the series with Mus musculus (subchronic, duration: 90 days, oral, clinical chemistry) it was 3 mg/kg-day; with Rattus norvegicus (acute), 200 mg/kg-day. Moreover, the LR50 in the series on Aphidius rhopalosiphi was found to be 40.6 mL/ha.
